Assay results published in patent publication US8450317B2, “CXCR3 receptor antagonists” (Boehringer Ingelheim International GmbH, priority 2009, dated 2013).

Molecular target: CXCR3 (Macaca fascicularis, UniProt A0A2K5UV19)
Experiment: functional cellular assay measuring calcium flux in CXCR3 transfected cells (block of CXCR3/IP-10 interaction)
Format: cell-based, Cyno
Conditions: IP-10 induced intracellular calcium flux; Cyno-CHO cells stably expressing recombinant CXCR3 and G-alpha-16; IP-10 at EC80; read-out: IC50
Procedure: Compounds are assessed for the ability to block the interaction of CXCR3 and IP-10 in a functional cellular assay measuring calcium flux in CXCR3 transfected cells.
Cyno-CHO cells, stably expressing recombinant CXCR3 and G-alpha-16 are grown in F12 medium (Mediatech #45000-360) supplemented with 10% (V/V) FBS (Mediatech #35-01500), 1% Geneticin (Invitrogen #10131-027) and 0.2% Zeocin (Invitrogen #R250-05). The cells are spun down and re-suspended in growth media to a concentration of […]. 25 microL of cell suspension is added to each well of a BD-384-well TC treated plate, providing 12,000 cells/well. The plate is incubated at 37° C./5% CO2 overnight. On the day of the assay, the plates are removed, the media is flicked out and 25 microL of Ca-4 dye in assay buffer (HBSS, 10 mM HEPES ph 7.4), containing 2 mM probenacid is added to each well. The cell assay plates are then incubated at 37° C./5% CO2 for one hour.
Test compounds are dissolved in DMSO and diluted to 1.045 mM in DMSO. Just prior to assay, 2.75 microL of appropriately diluted test compound are added to each well of a 384 well plate containing 45 microL of HBSS buffer. After mixing, 5 microL of diluted compound are added to each well of the cell assay plate for a final assay concentration of 10 microM. The plate is incubated at room temperature for 15 min. 10 microL of IP-10 stock solution in HBSS (4× EC80 concentration) are added to each well of the cell assay plate except those cells reserved as blank wells containing buffer only. Intracellular calcium flux is recorded on the HAMAMTSU FDSS6000, using excitation at 480 nm and emission at 540 nm. Data are analyzed using Activity Base software.
In general, the preferred potency range (IC50) of compounds in the above assay is between 1 nM to 3 μM, and the most preferred potency range is 1 nM to 200 nM.

Sequence of CXCR3 (A0A2K5UV19 entry or part of it): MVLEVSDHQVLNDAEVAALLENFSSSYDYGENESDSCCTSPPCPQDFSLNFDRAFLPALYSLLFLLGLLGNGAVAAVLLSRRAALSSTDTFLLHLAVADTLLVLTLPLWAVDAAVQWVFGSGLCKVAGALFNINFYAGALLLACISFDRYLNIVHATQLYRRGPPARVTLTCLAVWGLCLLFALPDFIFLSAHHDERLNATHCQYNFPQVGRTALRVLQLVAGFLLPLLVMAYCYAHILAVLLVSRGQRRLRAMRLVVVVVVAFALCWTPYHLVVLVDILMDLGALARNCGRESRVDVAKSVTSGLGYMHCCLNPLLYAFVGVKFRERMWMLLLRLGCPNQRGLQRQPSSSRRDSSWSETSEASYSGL

IC50	Compound
30 nM	CC1CN(c2ccc(C(F)(F)F)cc2-c2cnc(S(C)(=O)=O)nc2)CCN1C(=O)Cn1ccc2cccnc21 (centres unmarked) [1-(2-methyl-4-{2-[2-(methylsulfonyl)pyrimidin-5-yl]-4-(trifluoromethyl)phenyl}piperazin-1-yl)-2-(1H-pyrrolo[2,3-b]pyridin-1-yl)ethanone]
27 nM	CC1CN(c2ccccc2-c2cnc(S(C)(=O)=O)nc2)CCN1C(=O)Cn1ccc2cccnc21 (centres unmarked) [1-(2-methyl-4-{2-[2-(methylsulfonyl)pyrimidin-5-yl]phenyl}piperazin-1-yl)-2-(1H-pyrrolo[2,3-b]pyridin-1-yl)ethanone]
8 nM	CC1CN(c2ccc(C(F)(F)F)cc2-c2cnc(N3CCC(S(C)(=O)=O)CC3)nc2)CCN1C(=O)Cn1c(=O)[nH]c2ccccc21 (centres unmarked) [1-(2-{2-methyl-4-[2-{2-[4-(methylsulfonyl)piperidin-1-yl]pyrimidin-5-yl}-4-(trifluoromethyl)phenyl]piperazin-1-yl}-2-oxoethyl)-1,3-dihydro-2H-benzimidazol-2-one]
11 nM	CC1CN(c2ccc(C(F)(F)F)cc2-c2cnc(N3CCC(S(C)(=O)=O)CC3)nc2)CCN1C(=O)CN1CCCCC1=O (centres unmarked) [1-(2-{2-methyl-4-[2-{2-[4-(methylsulfonyl)piperidin-1-yl]pyrimidin-5-yl}-4-(trifluoromethyl)phenyl]piperazin-1-yl}-2-oxoethyl)piperidin-2-one]
11 nM	COc1ncc(-c2ccccc2N2CCN(C(=O)Cn3c(=O)n(C)c4ccccc43)CC2)cn1 [1-(2-{4-[2-(2-Methoxy-pyrimidin-5-yl)-phenyl]-piperazin-1-yl}-2-oxo-ethyl)-3-methyl-1,3-dihydro-benzoimidazol-2-one]
10 nM	O=C(Cn1c(=O)[nH]c2ccccc21)N1CCN(c2ccccc2-c2cnc(N3CCOCC3)nc2)CC1 [1-(2-{4-[2-(2-Morpholin-4-yl-pyrimidin-5-yl)-phenyl]-piperazin-1-yl}-2-oxo-ethyl)-1,3-dihydro-benzoimidazol-2-one]
13 nM	COc1ncc(-c2cc(F)ccc2N2CCN(C(=O)Cn3c(=O)[nH]c4ccccc43)CC2)cn1 [1-(2-{4-[4-fluoro-2-(2-methoxypyrimidin-5-yl)phenyl]piperazin-1-yl}-2-oxoethyl)-1,3-dihydro-2H-benzimidazol-2-one]
174 nM	COc1ncc(-c2cc(F)ccc2N2CCN(C(=O)CN3CCCCC3=O)CC2)cn1 [1-(2-{4-[4-fluoro-2-(2-methoxypyrimidin-5-yl)phenyl]piperazin-1-yl}-2-oxoethyl)piperidin-2-one]
6 nM	Cc1cc(C)n(CC(=O)N2CCN(c3ccccc3-c3cnc(N4CC(C)OC(C)C4)nc3)CC2)n1 (centres unmarked) [1-(4-{2-[2-(2,6-Dimethyl-morpholin-4-yl)-pyrimidin-5-yl]-phenyl}-piperazin-1-yl)-2-(3,5-dimethyl-pyrazol-1-yl)-ethanone]
7 nM	Cc1cc(C)n(CC(=O)N2CCN(c3ccccc3-c3cnc(N4CC(F)(F)C4)nc3)CC2)n1 [1-(4-{2-[2-(3,3-Difluoro-azetidin-1-yl)-pyrimidin-5-yl]-phenyl}-piperazin-1-yl)-2-(3,5-dimethyl-pyrazol-1-yl)-ethanone]
9 nM	Cc1cc(C)n(CC(=O)N2CCN(c3ccccc3-c3cnc(N4CCCC(F)(F)C4)nc3)CC2)n1 [1-(4-{2-[2-(3,3-Difluoro-piperidin-1-yl)-pyrimidin-5-yl]-phenyl}-piperazin-1-yl)-2-(3,5-dimethyl-pyrazol-1-yl)-ethanone]
14 nM	Cc1cc(C)n(CC(=O)N2CCN(c3ccccc3-c3cnc(N4CC(C)CC(C)C4)nc3)CC2)n1 (centres unmarked) [1-(4-{2-[2-(3,5-Dimethyl-piperidin-1-yl)-pyrimidin-5-yl]-phenyl}-piperazin-1-yl)-2-(3,5-dimethyl-pyrazol-1-yl)-ethanone]
22 nM	Cc1cc(C)n(CC(=O)N2CCN(c3ccccc3-c3cnc(N4CCC(F)(F)CC4)nc3)CC2)n1 [1-(4-{2-[2-(4,4-Difluoro-piperidin-1-yl)-pyrimidin-5-yl]-phenyl}-piperazin-1-yl)-2-(3,5-dimethyl-pyrazol-1-yl)-ethanone]
12 nM	Cc1cc(C)n(CC(=O)N2CCN(c3ccccc3-c3cnc(N4CCC(C)(C)CC4)nc3)CC2)n1 [1-(4-{2-[2-(4,4-Dimethyl-piperidin-1-yl)-pyrimidin-5-yl]-phenyl}-piperazin-1-yl)-2-(3,5-dimethyl-pyrazol-1-yl)-ethanone]
31 nM	Cc1cc(C)n(CC(=O)N2CCN(c3ccccc3-c3cnc(N4CCC(N(C)C)CC4)nc3)CC2)n1 [1-(4-{2-[2-(4-Dimethylamino-piperidin-1-yl)-pyrimidin-5-yl]-phenyl}-piperazin-1-yl)-2-(3,5-dimethyl-pyrazol-1-yl)-ethanone]
11 nM	CN1CCN(c2ncc(-c3ccccc3N3CCN(C(=O)Cn4ccc5cccnc54)CC3)cn2)CC1 [1-(4-{2-[2-(4-Methyl-piperazin-1-yl)-pyrimidin-5-yl]-phenyl}-piperazin-1-yl)-2-pyrrolo[2,3-b]pyridin-1-yl-ethanone]
10 nM	CC1CN(c2ccc(C(F)(F)F)cc2-c2cnc(N3CCC(O)CC3)nc2)CCN1C(=O)Cn1ccc2cccnc21 (centres unmarked) [1-(4-{2-[2-(4-hydroxypiperidin-1-yl)pyrimidin-5-yl]-4-(trifluoromethyl)phenyl}-2-methylpiperazin-1-yl)-2-(1H-pyrrolo[2,3-b]pyridin-1-yl)ethanone]
7 nM	CC1CN(c2ccc(C(F)(F)F)cc2-c2cnc(N3CCC(O)CC3)nc2)CCN1C(=O)Cn1ccc2ccncc21 (centres unmarked) [1-(4-{2-[2-(4-hydroxypiperidin-1-yl)pyrimidin-5-yl]-4-(trifluoromethyl)phenyl}-2-methylpiperazin-1-yl)-2-(1H-pyrrolo[2,3-c]pyridin-1-yl)ethanone]
11 nM	CC1CN(c2ccc(C(F)(F)F)cc2-c2cnc(N3CCC(O)CC3)nc2)CCN1C(=O)Cn1cnc2cccnc21 (centres unmarked) [1-(4-{2-[2-(4-hydroxypiperidin-1-yl)pyrimidin-5-yl]-4-(trifluoromethyl)phenyl}-2-methylpiperazin-1-yl)-2-(3H-imidazo[4,5-b]pyridin-3-yl)ethanone]
9 nM	CC1CN(c2ccccc2-c2cnc(N3CCC(O)CC3)nc2)CCN1C(=O)Cn1ccc2cccnc21 (centres unmarked) [1-(4-{2-[2-(4-hydroxypiperidin-1-yl)pyrimidin-5-yl]phenyl}-2-methylpiperazin-1-yl)-2-(1H-pyrrolo[2,3-b]pyridin-1-yl)ethanone]
8 nM	CC1CN(c2ccccc2-c2cnc(N3CCC(O)CC3)nc2)CCN1C(=O)Cn1ccc2ccncc21 (centres unmarked) [1-(4-{2-[2-(4-hydroxypiperidin-1-yl)pyrimidin-5-yl]phenyl}-2-methylpiperazin-1-yl)-2-(1H-pyrrolo[2,3-c]pyridin-1-yl)ethanone]
11 nM	CC1CN(c2ccccc2-c2cnc(N3CCC(O)CC3)nc2)CCN1C(=O)Cn1cnc2cccnc21 (centres unmarked) [1-(4-{2-[2-(4-hydroxypiperidin-1-yl)pyrimidin-5-yl]phenyl}-2-methylpiperazin-1-yl)-2-(3H-imidazo[4,5-b]pyridin-3-yl)ethanone]
7 nM	C[C@@H]1CN(c2ncc(-c3ccccc3N3CCN(C(=O)Cn4ccc5cccnc54)CC3)cn2)C[C@@H](C)O1 [1-(4-{2-[2-((2R,6R)-2,6-Dimethyl-morpholin-4-yl)-pyrimidin-5-yl]-phenyl}-piperazin-1-yl)-2-pyrrolo[2,3-b]pyridin-1-yl-ethanone]
